This note sets out measurements from PMC11460631, “Inhibition of transient receptor potential vanilloid 3 channels by antimalarial hydroxychloroquine alleviates TRPV3-dependent dermatitis” (The Journal of Biological Chemistry, 2024).

Broadly, the IC50 is the point on the concentration scale where inhibition reaches its midpoint. Low readings indicate inhibition by little substance, high ones a need for much substance.

The assay has as its target T1, TRPV3 L670 alanine mutation (Homo sapiens, UniProt Q8NET8, L670A).
T1 construct: YFP or GFP; expressed in transfected cells; host or cells: HEK293T
T1 sequence (Q8NET8 1-790 L670A): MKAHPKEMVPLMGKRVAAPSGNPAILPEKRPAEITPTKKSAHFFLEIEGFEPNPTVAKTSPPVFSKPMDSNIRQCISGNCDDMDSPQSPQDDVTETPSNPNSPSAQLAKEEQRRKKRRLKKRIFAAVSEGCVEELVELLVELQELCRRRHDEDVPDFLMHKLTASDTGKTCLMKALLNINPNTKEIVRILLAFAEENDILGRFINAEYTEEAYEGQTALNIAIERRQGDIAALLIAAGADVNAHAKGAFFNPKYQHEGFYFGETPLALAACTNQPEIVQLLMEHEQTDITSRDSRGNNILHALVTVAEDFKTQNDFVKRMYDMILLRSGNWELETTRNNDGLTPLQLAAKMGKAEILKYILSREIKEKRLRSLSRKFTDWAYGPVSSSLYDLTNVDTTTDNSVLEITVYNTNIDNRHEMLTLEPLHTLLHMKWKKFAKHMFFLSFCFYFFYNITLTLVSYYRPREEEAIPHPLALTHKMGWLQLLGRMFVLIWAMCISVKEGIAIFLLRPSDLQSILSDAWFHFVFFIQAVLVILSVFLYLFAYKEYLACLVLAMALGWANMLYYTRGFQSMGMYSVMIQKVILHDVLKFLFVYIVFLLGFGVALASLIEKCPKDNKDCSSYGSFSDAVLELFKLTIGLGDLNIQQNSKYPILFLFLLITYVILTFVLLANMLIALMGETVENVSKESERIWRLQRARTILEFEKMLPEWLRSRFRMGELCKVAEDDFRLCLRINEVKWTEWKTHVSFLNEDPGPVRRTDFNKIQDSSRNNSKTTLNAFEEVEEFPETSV
The assay is described as follows: Whole-cell recording of TRPV3 L670 alanine mutant. It counts as cell-based. The note with it: 1 mM 2-APB, ± 80 mV. The source says: As we mentioned above, HCQ may act as a pore blocker of TRPV3. To probe the binding configuration of HCQ to TRPV3, we carried out molecular docking using Rosetta suite (https://rosettacommons.org) ([21]) and validated the docking models with point mutations in TRPV3 (Fig. 4A). […] Furthermore, when we introduced L670A to L591A mutant, we also observed a left shift on the concentration–response curve on this double mutant as compared to L591A mutant (Fig. 4H).
Figure 4 Residues of the pore domain are critical for HCQ inhibition on TRPV3.A, left panel, docking model of HCQ to the pore domain of TRPV3 structure (6uw4). Right panels, top view and side view of the HCQ-binding pocket. B-J, representative whole-cell recording of TRPV3 and mutants in response to 1 mM 2-APB, the mixture of 1 mM 2-APB and concentration gradients of HCQ with the holding potential of ± 80 mV. K, concentration–response curves of HCQ in WT TRPV3 and mutants (n = 3–5 cells). L, quantification of the inhibitory ratio of HCQ (100 μM) on WT, L591A, and N671Q. […]
All data from whole-cell recordings were analyzed in Igor Pro (WaveMetrics). IC50 values were determined by fitting the Hill equation to concentration-response relationships. […]

`CCN(CCO)CCCC(C)Nc1ccnc2cc(Cl)ccc12` (stereo not shown) [HCQ, hydroxychloroquine] came in with an IC50 of 170 ± 40 nM.
